# Assay results reported in US6544542B1, “Fat emulsions for inhalational administration” (Nippon Shinyaku Co., Ltd., priority 1998, dated 2003).
# Experiment: Test Example 7: influence of the solubilization-effective surfactant concentration on nebulizer sprayability
# Format: physicochemical
"nebulizer sprayability, CA","nebulizer sprayability, Dexamethasone palmitate","nebulizer sprayability, Guaiazulene",Substance
Infeasible,Infeasible,Infeasible,Tween-80
Infeasible,–,–,Triton X100
